Results as given in patent publication US20100273733A1, “HIV Treatment” (priority 2009, published 2010).

Columns and labels:
[1] = test system: Jurkat (T-lymphocyte) cells; test: Selective toxicity, cell viability by MTT or XTT, uninfected control cells; format: cell-based
Method: For purposes of the following experiments and unless otherwise specified, the standard DEAE/Dex concentration is about 6.0 to about 6.9 molar DEAE/0.1 molar Dex.
Selective Toxicity. Wells with 10^6 Jurkat (T-lymphocyte) cells were infected with HIV at Multiplicities of Infection (MOI—the number of viral particles vs. infectable cells) of 0.1 or 0.01 for 4 hours. The cells are treated with Dex, DEAE, DEAE/DEX or control for 48 hours. Cell viability was assayed by MTT or XTT method. In the control (uninfected) cells, standard concentrations of Dex, DEAE and DEAE/Dex are non-toxic (within standard deviation).

HIV = HIV replication in JC53 cells, viral core antigen P24 antibody kit; format: cell-based; conditions: Dex alone from greater or equal to 0.1 μmolar, effect topped out
Method: In another experiment, JC53 cells (HeLa cancer cells engineered to express CD4 and CCR5 receptors for HIV) are treated with HIV and the relevant agents to determine if DEAE inhibit HIV replication, using commercial antibody kit for viral core antigen P24 to assess level of virus production. […] The virus appears able to propagate and infect other cells. Dex alone indicated a 50% HIV activity inhibition from greater or equal to 0.1 μmolar. […] Similarly, 0.02 μmolar AZT alone has 40% inhibition of HIV replication.

For `C[C@@H]1C[C@H]2[C@@H]3CCC4=CC(=O)C=C[C@]4(C)[C@@]3(F)[C@@H](O)C[C@]2(C)[C@@]1(O)C(=O)CO` [Dex, dexamethasone], the “toxicity (cell viability)” value [1] was “non-toxic” and the HIV activity inhibition (HIV) was 50%.
